A word on the inhibition: it is the change of the read-out against control, counted positive when it falls. One may read the IC50 as the concentration that gives 50% inhibition.

Activity calls are given as the source filed them. No cut-off for these calls is given here.

Assay [1] can be described thus: Antioxidant activity assessed as trolox equivalent of AAPH-induced radical scavenging activity at 1 to 8 uM pretreated for 15 mins followed by AAPH addition measured at 1 min interval for 80 mins by ORAC-FL assay. Format: functional.
Assay [2] concerns the target T1, Amyloid-beta precursor protein (Homo sapiens, UniProt P05067). The assay is described as follows: Inhibition of HFIP-pretreated amyloid beta (1 to 42) (unknown origin) self-induced aggregation at 50 uM after 48 hrs by thioflavin T-based fluorometric assay relative to control.
For assay [3], the target named is T1, Amyloid-beta precursor protein. Nature of the assay: Inhibition of HFIP-pretreated amyloid beta (1 to 42) (unknown origin) self-induced aggregation at 25 uM after 48 hrs by thioflavin T-based fluorometric assay relative to control.
The nature of assay [4]: Metal chelating activity assessed as Fe2+-compound complex formation by measuring shift in maximum absorption wavelength at 30 uM after 30 mins by UV-Vis spectroscopic method.
Assay [5] is described as follows: Inhibition of Cu2+-induced amyloid beta (1 to 42 residues) (unknown origin) aggregation at 50 uM after 24 hrs by thioflavin T-based fluorometric assay relative to control.
Assay [6] concerns the target Acetylcholinesterase (Electrophorus electricus) (UniProt O42275). The assay is described as follows: Potency index, ratio of donepezil effect to test compound effect for inhibition of electric eel AChE-induced amyloid beta (1 to 42) aggregation.
A short description of assay [7]: Metal chelating activity assessed as Al3+-compound complex formation by measuring shift in maximum absorption wavelength at 30 uM after 30 mins by UV-Vis spectroscopic method.
Assay [8] in a line: Metal chelating activity assessed as Zn2+-compound complex formation by measuring shift in maximum absorption wavelength at 30 uM after 30 mins by UV-Vis spectroscopic method.
Assay [9] has as its target T1, Amyloid-beta precursor protein. The assay is described as follows: Inhibition of HFIP-pretreated amyloid beta (1 to 42) (unknown origin) self-induced aggregation at 75 uM after 48 hrs by thioflavin T-based fluorometric assay relative to control.
The target is the same in assay [10]. The assay is described as follows: Inhibition of HFIP-pretreated amyloid beta (1 to 42) (unknown origin) self-induced aggregation after 48 hrs by thioflavin T-based fluorometric assay.
Assay [11] can be described thus: Metal chelating activity assessed as Cu2+-compound complex formation by measuring shift in maximum absorption wavelength at 30 uM after 30 mins by UV-Vis spectroscopic method.
A short description of assay [12]: Metal chelating activity assessed as stoichiometric ratio of Cu2+-compound complex at 30 uM after 30 mins by Job plot analysis.
For assay [13], the target named is T1, Amyloid-beta precursor protein. Nature of the assay: Disaggregation of self-induced amyloid beta (1 to 42) (unknown origin) assessed as appearance of sparse fibrils at 50 uM after 48 hrs by transmission electron microscopic analysis.
Assay [14] in a line: Metal chelating activity assessed as Zn2+-compound complex formation at 30 uM after 30 mins by UV-Vis spectroscopic method.
Assay [15] is described as follows: Metal chelating activity assessed as Al3+-compound complex formation at 30 uM after 30 mins by UV-Vis spectroscopic method.

T1 sequence (P05067 whole entry): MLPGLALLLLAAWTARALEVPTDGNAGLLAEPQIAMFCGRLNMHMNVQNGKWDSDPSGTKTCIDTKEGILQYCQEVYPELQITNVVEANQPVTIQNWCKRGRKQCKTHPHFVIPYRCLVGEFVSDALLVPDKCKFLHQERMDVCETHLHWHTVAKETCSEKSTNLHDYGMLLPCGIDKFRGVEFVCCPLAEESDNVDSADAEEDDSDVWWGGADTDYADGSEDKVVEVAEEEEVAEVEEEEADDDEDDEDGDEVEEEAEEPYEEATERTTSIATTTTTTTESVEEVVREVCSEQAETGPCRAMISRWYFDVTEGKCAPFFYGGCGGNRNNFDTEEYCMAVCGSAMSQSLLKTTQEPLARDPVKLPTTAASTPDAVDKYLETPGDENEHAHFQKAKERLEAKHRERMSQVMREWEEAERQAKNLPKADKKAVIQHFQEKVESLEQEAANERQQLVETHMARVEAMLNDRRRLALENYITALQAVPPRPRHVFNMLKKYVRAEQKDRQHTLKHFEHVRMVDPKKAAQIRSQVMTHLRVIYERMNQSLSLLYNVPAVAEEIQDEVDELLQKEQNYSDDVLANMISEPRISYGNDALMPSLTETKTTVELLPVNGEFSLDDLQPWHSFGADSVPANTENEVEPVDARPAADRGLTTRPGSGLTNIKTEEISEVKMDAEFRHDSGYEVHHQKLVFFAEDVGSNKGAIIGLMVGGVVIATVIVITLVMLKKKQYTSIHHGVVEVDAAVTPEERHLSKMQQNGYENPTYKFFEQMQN
Sequence of Acetylcholinesterase (Electrophorus electricus) (O42275 24-633 limits assumed): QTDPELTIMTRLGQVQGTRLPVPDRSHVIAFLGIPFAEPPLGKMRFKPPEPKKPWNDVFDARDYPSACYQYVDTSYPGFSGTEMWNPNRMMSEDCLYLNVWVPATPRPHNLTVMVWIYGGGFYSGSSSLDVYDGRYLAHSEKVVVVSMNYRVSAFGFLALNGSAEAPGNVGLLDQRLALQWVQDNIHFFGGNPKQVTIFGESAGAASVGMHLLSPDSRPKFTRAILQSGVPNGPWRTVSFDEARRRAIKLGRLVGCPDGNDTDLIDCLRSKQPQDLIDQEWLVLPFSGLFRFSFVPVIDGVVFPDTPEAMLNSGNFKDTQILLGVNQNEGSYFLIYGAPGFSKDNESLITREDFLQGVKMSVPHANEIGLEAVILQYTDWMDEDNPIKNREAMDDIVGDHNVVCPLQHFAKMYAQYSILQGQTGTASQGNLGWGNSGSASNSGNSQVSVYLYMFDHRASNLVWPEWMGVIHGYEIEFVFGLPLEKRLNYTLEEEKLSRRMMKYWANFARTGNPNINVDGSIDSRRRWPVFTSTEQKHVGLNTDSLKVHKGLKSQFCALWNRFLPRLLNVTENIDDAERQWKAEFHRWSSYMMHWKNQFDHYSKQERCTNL

`CCOc1cc(CNc2ccc(C)cc2)ccc1Oc1ccnc2cc(Cl)ccc12`: the Activity (umolequiv/umol) in [1] came to 2.28. Moreover, in assay [2], the inhibition turned out to be 46.8%.

As for `CCOc1cc(CNc2cccc(C(F)(F)F)c2)ccc1Oc1ccnc2cc(Cl)ccc12`, the Activity (umolequiv/umol) in [1] came to 1.56. Further, the inhibition in assay [2] was found to be 30%.

Regarding `CCOc1cc(CNc2ccc(OC)cc2)ccc1Oc1ccnc2cc(Cl)ccc12`, the inhibition in [3] is 26.7%; in assay [5], 32.7%; in [2], 53.7%; in [9], 6.89%. Besides, the Activity in assay [4] is 305 nm; in assay [7], 304 nm; in assay [8], 304 nm; in assay [11], 304 nm. Further, in assay [1], the Activity (umolequiv/umol) amounted to 1.95. For the same compound, the Ratio in [6] is > 2; in assay [12] it was 0.8. In addition, the IC50 in [10] was 46.4 µM. In addition, in [13], the result was Active.

Take `CCOc1cc(CNc2ccccn2)ccc1Oc1ccnc2cc(Cl)ccc12`: the Activity (umolequiv/umol) in [1] stood at 0.55. Further, the inhibition in assay [2] is 41.5%.

Consider `CCOc1cc(CNc2ccc(F)cc2F)ccc1Oc1ccnc2cc(Cl)ccc12`, for which the Activity (umolequiv/umol) in assay [1] is 2.37. In addition, the inhibition in [2] came out at 27.8%.

In the case of `CCOc1cc(CNc2cccc(C)n2)ccc1Oc1ccnc2cc(Cl)ccc12`, the Activity (umolequiv/umol) in assay [1] was determined as 0.87. Besides, in assay [2], the inhibition is 41.6%.

In the case of `CCOc1cc(CNc2ccccc2)ccc1Oc1ccnc2cc(Cl)ccc12`, the inhibition was found to be 37.1% in assay [3], 22.4% in assay [5], 53.6% in assay [2] and 3.37% in assay [9]. Further, the Activity in assay [4] and in [11] was 305 nm throughout. In addition, the Activity (umolequiv/umol) in [1] was 2.72. The Ratio was > 2 in assay [6] and 0.5 in [12]. Besides, the IC50 in assay [10] amounted to 44.5 µM. Moreover, the result in [14], in assay [15] and in [13] was Active.

In turn, `COc1cc(/C=C/C(=O)CC(=O)/C=C/c2ccc(O)c(OC)c2)ccc1O` showed an inhibition in assay [5] of 52.9%.

Source of the values: ChEMBL document CHEMBL4368857, “New amyloid beta-disaggregating agents: synthesis, pharmacological evaluation, crystal structure and molecular docking of N-(4-((7-chloroquinolin-4-yl)oxy)-3-ethoxybenzyl)amines” (Medchemcomm, 2018).
